Measured values reported in patent publication US11090276B2, “Formulation of fat-soluble vitamin” (BASF SE, priority 2014, dated 2021).

Experiment: Loss of MK-7 on direct compression into tablets with calcium or magnesium excipients
Assay type: physicochemical
Settings: directly compressed with excipients such as calcium or magnesium
Text: However, vitamins K1 and K2 degrade when formulated in a conventional dosage form, such as a tablet, in the presence of mineral salts, in particular calcium or magnesium salts. Moreover, during formulation of the dosage form, there is a still yet further opportunity for degradation. When directly compressed along with some excipients in a tablet such as calcium or magnesium, a serious reduction in the amount of MK-7 present after tableting can be observed, such as up to 30% reduction in MK-7. As MK-7 is expensive, that is not an acceptable loss on formulation. The MK-7 degradation appears to be accelerated in the presence of calcium or magnesium. As calcium and magnesium are valuable minerals, it is desirable to be able to formulate vitamins in general and MK-7 in particular with calcium and magnesium.

reduction in MK-7 after tableting: up to 30%
SMILES: CC(C)=CCC/C(C)=C/CC/C(C)=C/CC/C(C)=C/CC/C(C)=C/CC/C(C)=C/CC/C(C)=C/CC1=C(C)C(=O)c2ccccc2C1=O [MK-7]
